Measurements published in patent US7572949B2, “SKN-1 and GSK-3 genes and proteins” (Immune Disease Institute, Inc., priority 2003, dated 2009).

Legend:
[1] = tested on: GCS-1::GFP expression in the intestine; experiment: Induction of GCS-1::GFP expression in the intestine by oxidative stress (transgenic worms, fluorescence microscopy); format: in vivo, C. elegans; conditions: for percentage of animals with high intestinal GCS-1::GFP expression / percentage of animals with low intestinal GCS-1::GFP expression / percentage of animals with medium intestinal GCS-1::GFP expression: 1 mM paraquat in the agar, 20° C., 3 days, mixed L2-young adult worms
Method: Transgenic strains were generated by injecting DNA into the gonad of young adult animals as described in Mello et al. (EMBO Journal 10: 3959-3970 (1991)). gcs-1::gfp transgene constructs (FIG. 3A) were injected at 50 ng/μl along with the rol-6 marker (pRF4) at 100 ng/μl. Between three and six independent extrachromosomal lines were generated and analyzed for each gcs-1::gfp construct. To investigate GCS-1::GFP expression in the skn-1(zu67) background, rol-6-marked gcs-1::gfp hermaphrodites were mated with N2 males, then their transgenic progeny were crossed with skn-1(zu67)/DnT1 hermaphrodites, which have an unc phenotype. After transgenic males were successively crossed twice with skn-1(zu67)/DnT1 hermaphrodites, unc; rol F3 hermaphrodite progeny were selected. From this population, skn-1(zu67)/DnT1; gcs-1::gfp animals were identified on the basis of their non-unc; rol progeny laying dead eggs. Two different gcs-1:gfp lines were thereby crossed into the skn-1(zu67) background and examined for GFP expression. DIC and fluorescence images were acquired with a Zeiss AxioSKOP2 microscope and AxioCam cooled color digital camera.
To investigate expression of gcs-1::gfp and mutant transgenes, worms were exposed to oxidative stress under the following conditions. For heat shock, worms cultured at 20° C. were transferred onto prewarmed seeded plates and incubated at 29° C. for 20 hours, then examined by fluorescence microscopy for GFP expression. gcs-1::gfp induction was also observed in an alternative heat treatment protocol, during which worms cultured at 20° C. were transferred onto prewarmed plates and incubated at 34° C. for 2 to 4 hours, then returned to 20° C. and examined for GFP expression hourly during a four hour recovery period. In the experiments described in Table 2, young adults were transferred to plates that contained 1 mM paraquat in the agar and maintained at 20° C. for 3 days prior to analysis. In an alternative induction protocol, worms that carried gcs-1::gfp or the mutant transgenes shown in FIG. 3A were incubated in M9 either with or without 100 mM paraquat for 30 minutes, then allowed to recover on plates for four hours.

SKN-1::GFP = experiment: Accumulation of SKN-1::GFP in intestinal nuclei in response to oxidative stress (skn-1::gfp transgenic worms); format: in vivo, C. elegans
Method: To create transgenic skn-1::gfp strains, 2.5, 10, or 50 ng/μl of transgene DNA (FIG. 5A) was injected into N2 animals at along with 100 ng/μl of pRF4 to generate extrachromosomal transgenic lines. Two different extrachromosomal arrays, Ex001 and Ex007, generated with 2.5 and 10 ng/μl of SKN-1::GFP, respectively, were integrated into the chromosome by UV irradiation (400 J/m2) to produce the insertion strains Is001 and Is007, respectively. To rescue the embryonic lethality of a skn-1 mutation, SKN-1::GFP was injected into skn-1(zu67)/DnT1 animals at 2.5 ng/μl with 100 ng/μl of the pRF4 marker. […] To analyze expression and localization of SKN-1::GFP in response to oxidative stress, skn-1::gfp transgenic worms were treated as described above for the gcs-1::gfp expression studies. […] These worms were scored for presence of SKN-1::GFP in intestinal nuclei 5 minutes later. […] To discriminate intestinal autofluorescence from SKN-1::GPP epifluorescence, a triple band emission filter set (Chroma 61000) was used in conjunction with a narrow band excitation filter (484/14 nm). This combination allowed autofluorescence to be detected as yellow/orange fluorescence deriving from a combined green and red signal, while GFP remained green. Worms that carried skn-1::gfp, gcs-1::gfp and gcs-1::gfp mutant transgenes were incubated with 50 μg/ml DiI (Molecular Probes) in M9 for 3 hours at 20° C., then transferred to fresh plates for 1 hour to destain, and examined under the fluorescence microscope. The ASI chemosensory neurons were identified by according to their intensity of DiI labeling and location relative to other DiI-labeled cells.

[2] = tested on: C. elegans pathway mediated by SKN-1; conditions: in vivo
[3] = 2 mM, immobilization for photography, during the times examined (data not shown)
[4] = paraquat, treated as for the gcs-1::gfp studies, mixed-stage L2-young adult worms

c1ccc([C@H]2CN3CCSC3=N2)cc1 [Levamisole]
GCS-1::GFP induction by immobilization agent [1, 3]: did not stimulate
SKN-1::GFP relocalization by immobilization agent (SKN-1::GFP; [3]): did not stimulate

C[n+]1ccc(-c2cc[n+](C)cc2)cc1 [Paraquat, paraquat (methyl viologen)]
intestinal gcs-1::gfp expression, alternative induction protocol ([1]; 100 mM paraquat in M9 for 30 minutes, four hours recovery on plates): induction of intestinal gcs-1::gfp expression
percentage of animals with high intestinal GCS-1::GFP expression ([1]; gcs-1::gfp transgene): 18.4%
percentage of animals with low intestinal GCS-1::GFP expression ([1]; gcs-1::gfp transgene): 14.5%
percentage of animals with medium intestinal GCS-1::GFP expression ([1]; gcs-1::gfp transgene): 67.1%
percentage of animals with high intestinal GCS-1::GFP expression ([1]; gcsΔ2::gfp transgene): 13.1%
percentage of animals with low intestinal GCS-1::GFP expression ([1]; gcsΔ2::gfp transgene): 21.3%
percentage of animals with medium intestinal GCS-1::GFP expression ([1]; gcsΔ2::gfp transgene): 65.6%
GCS-1::GFP in the intestine and ASI neurons of skn-1 homozygotes ([1]; skn-1 homozygotes, after paraquat treatment (data not shown)): absence of GCS-1::GFP
SKN-1::GFP in the ASI neurons after exposure (SKN-1::GFP; ASI neurons, after exposure to paraquat): neither the location nor intensity of SKN-1::GFP was detectably altered
SKN-1::GFP in intestinal cell nuclei after exposure (SKN-1::GFP; in a high percentage of animals, particularly anteriorly and posteriorly, after exposure to paraquat): elevated levels of SKN-1::GFP
percentage of animals with high SKN-1::GFP in intestinal nuclei (SKN-1::GFP; [4]): 3.1%
percentage of animals with low SKN-1::GFP in intestinal nuclei (SKN-1::GFP; [4]): 53.1%
percentage of animals with medium SKN-1::GFP in intestinal nuclei (SKN-1::GFP; [4]): 43.8%

[N-]=[N+]=[N-] [Sodium Azide, sodium azide]
percentage of animals with high SKN-1::GFP in intestinal nuclei (SKN-1::GFP; in vivo): 55.0%
percentage of animals with low SKN-1::GFP in intestinal nuclei (SKN-1::GFP; in vivo): 0.8%
percentage of animals with medium SKN-1::GFP in intestinal nuclei (SKN-1::GFP; in vivo): 44.2%

C[S+]([O-])CCCCN=C=S (stereo not shown) [sulforaphane]
response of the SKN-1-mediated pathway [2]: responds
